According to publication PMC9656702, “Unveiling a New Selenocyanate as a Multitarget Candidate with Anticancer, Antileishmanial and Antibacterial Potential” (Molecules, 2022):
Values after ≈ are worked out from the molar mass of the structure shown. Where two headings read alike, the source gives them in different places.

What was measured:
HT-29 = assay: Antiproliferative MTT assay, HT-29 colon cancer cells; assay type: cell-based, human
Experimental: (§1) The antiproliferative activities of the cinnamyl and benzodioxyl derivatives were assessed against six human cell lines of three different types of cancer (colon, lung, and breast) using the 3-(4,5-dimethylthiazol-2-yl)-2,5-diphenyltetrazolium bromide (MTT) assay at seven concentrations for 48 h. The results are expressed as the IC50 values and are outlined in Table 1.
(§2) The cell lines were obtained from the American Type Culture Collection (ATCC). All the cancer cell lines (HT-29, HCT-116, H1299, HTB-54, MDA-MB-231 and MCF-7) and the nontumorigenic cells (184B5) were maintained in RPMI 1640 medium (Gibco), supplemented with 10% fetal bovine serum (FBS; Gibco) and 1% antibiotics (10.00 units/mL penicillin and 10.00 mg/mL streptomycin; Gibco). Cells were preserved in tissue culture flasks at 37 °C and 5% CO2. Culture medium was replaced every three days.
(§3) The cytotoxic effect of each compound was initially tested at seven different concentrations ranging between 0.5 and 100 µM in the cell lines mentioned above. The cells were seeded (1 × 10^4 cells per well) in 96-well plates and incubated at 37 °C and 5% CO2 for 24 h. After attachment, cells were treated with either dimethyl sulfoxide (DMSO) or increasing concentrations of the corresponding selenocompound for 48 h. The effect of the compounds on cell viability was determined by the MTT assay. In brief, 20 µL of MTT (5 mg/mL) was added to each well 2.5 h prior to experiment termination. At the end of the incubation, the medium was removed, and the formazan crystals were dissolved in 50 µL of DMSO. Absorbance was measured at 550 nm on a microplate reader. IC50 values were calculated using OriginPro 8.5.1. software by nonlinear curve fitting. Selectivity indexes were calculated as the ratio of the IC50 values determined for the nonmalignant and the tumoral cells in the breast cell lines (IC50 (184B5)/IC50 (MDA-MB-231) and IC50 (184B5)/IC50 (MCF-7)). Data were obtained from at least three independent experiments performed in triplicates.

H1299 = assay: Antiproliferative MTT assay, H1299 lung cancer cells; assay type: cell-based, human
Experimental: as §1, §2, §3

HTB-54 = assay: Antiproliferative MTT assay, HTB-54 lung cancer cells; assay type: cell-based, human
Experimental: as §1, §2, §3

MDA-MB-231 = assay: Antiproliferative MTT assay, MDA-MB-231 breast cancer cells; assay type: cell-based, human
Experimental: as §1, §2, §3

E. coli = assay: MIC and MBC assay, E. coli; assay type: cell-based, Escherichia coli; conditions: Gram-negative; for MBC / MIC: Escherichia coli; for MIC / MIC E. coli: 24 h at 37 °C
Experimental: (§4) The minimum inhibitory concentration (MIC) and the minimum bactericidal concentration (MBC) values of the selenocompounds were determined in a panel of six bacterial strains as a first approach to assess their antibacterial activity. Thus, the synthesized derivatives were tested against the Gram-negative bacteria Escherichia coli (E. coli), Klebsiella pneumoniae (K. pneumoniae) and Citrobacter freundii (C. freundii); and the Gram-positive bacteria Staphylococcus aureus (S. aureus), Streptococcus faecalis (S. faecalis), and Staphylococcus epidermidis (S. epidermidis). […]
(§5) All the selenocompounds were screened for their in vitro inhibitory activity against three Gram-negative (E. coli, K. pneumoniae and C. freundii) and three Gram-positive (S. aureus, S. faecalis and S. epidermidis) bacteria. Bacterial strains were kindly provided by the Department of Microbiology and Parasitology of the University of Navarra. The bacterial cells were grown in tryptic soy agar (TSA) plates and maintained at 4 °C.
(§6) The compounds were firstly dissolved in DMSO and serially diluted in a 96-well plate in tryptic soy broth (TSB) with eleven concentrations ranging from 400 µg/mL to 0.4 µg/mL with a final volume of 100 µL. Subsequently, 100 µL of a diluted suspension of bacterial cells with an optical density of 0.125 measured at 600 nm in TSB (inoculum of approximately 10^5 CFU/mL) was added to each well and incubated at 37 °C for 24 h. After the incubation period, each well was analyzed for the presence or absence of visual growth of bacterial cells. The lowest concentration of the test compound at which no visible growth occurred was determined as the MIC values. After incubation, 10 µL of the bacterial suspension from each well that presented antibacterial activity was added to divided TSA plates and incubated at 37 °C overnight.

K. pneumoniae = assay: MIC and MBC assay, K. pneumoniae; assay type: cell-based, Klebsiella pneumoniae; conditions: for MIC / MBC: Klebsiella pneumoniae; for MIC: read-out: MIC K. pneumoniae; for MBC: read-out: MBC K. pneumoniae
Experimental: as §4, §5, §6

C. freundii = assay: MIC and MBC assay, C. freundii; assay type: cell-based, Citrobacter freundii; conditions: for MIC / MBC: Citrobacter freundii; for MIC: read-out: MIC C. freundii; for MBC: read-out: MBC C. freundii
Experimental: as §4, §5, §6

S. aureus = assay: MIC and MBC assay, S. aureus; assay type: cell-based, Staphylococcus aureus; conditions: Gram-positive; for MBC / MIC: Staphylococcus aureus; for MIC / MIC S. aureus: 24 h at 37 °C
Experimental: as §4, §5, §6

S. faecalis = assay: MIC and MBC assay, S. faecalis; assay type: cell-based, Streptococcus faecalis; conditions: for MIC / MBC: Enterococcus faecalis; for MIC: read-out: MIC S. faecalis; for MBC: read-out: MBC S. faecalis
Experimental: as §4, §5, §6

S. epidermidis = assay: MIC and MBC assay, S. epidermidis; assay type: cell-based, Staphylococcus epidermidis; conditions: for MIC / MBC: Staphylococcus epidermidis; for MIC: read-out: MIC S. epidermidis; for MBC: read-out: MBC S. epidermidis
Experimental: as §4, §5, §6

[1] = Homo sapiens, HT-29, 48 h, MTT assay, 48 h, mean ± SD, read-out: IC50 HT-29
[2] = MTT assay, 48 h, mean ± SD, read-out: IC50 HT-29
[3] = Homo sapiens, NCI-H1299, 48 h, MTT assay, 48 h, mean ± SD, read-out: IC50 H1299
[4] = MTT assay, 48 h, mean ± SD, read-out: IC50 H1299
[5] = Homo sapiens, HTB-54, MTT assay, 48 h, mean ± SD, read-out: IC50 HTB-54
[6] = Homo sapiens, MDA-MB-231, MTT assay, 48 h, mean ± SD, read-out: IC50 MDA-MB-231
[7] = MTT assay, 48 h, mean ± SD, read-out: IC50 HTB-54
[8] = MTT assay, 48 h, mean ± SD, read-out: IC50 MDA-MB-231

| Structure (SMILES) | MBC (E. coli) [µg/mL] | MIC (E. coli) [µg/mL] | MBC (S. aureus) [µg/mL] | MIC (S. aureus) [µg/mL] | MBC S. faecalis (S. faecalis; Gram-positive) | IC50 (HT-29; [1]) [µM] | IC50 (HT-29; [2]) [µM] | IC50 (H1299; [3]) [µM] | IC50 (H1299; [4]) [µM] | IC50 (HTB-54; [5]) [µM] | IC50 (MDA-MB-231; [6]) [µM] | MIC (K. pneumoniae; Gram-negative, 24 h at 37 °C) [µg/mL] | MIC (C. freundii; Gram-negative, 24 h at 37 °C) [µg/mL] | MIC (S. faecalis; Gram-positive, 24 h at 37 °C) [µg/mL] | MIC (S. epidermidis; Gram-positive, 24 h at 37 °C) [µg/mL] | IC50 (HTB-54; [7]) [µM] | IC50 (MDA-MB-231; [8]) [µM] | MIC S. aureus (S. aureus) [µg/mL] | MIC S. faecalis (S. faecalis; Gram-positive, 24 h at 37 °C) [µg/mL] | MIC S. epidermidis (S. epidermidis; Gram-positive, 24 h at 37 °C) [µg/mL] | also measured |
| --- | --- | --- | --- | --- | --- | --- | --- | --- | --- | --- | --- | --- | --- | --- | --- | --- | --- | --- | --- | --- | --- |
| N#C[Se]C/C=C/c1ccccc1 [Compound 1a, (E)-(3-selenocyanatoprop-1-en-1-yl)benzene] | > 200 | 100 (≈ 450 µM) | 50 (≈ 225 µM) | 50 (≈ 225 µM) | no bactericidal effect was observed |  |  |  |  |  |  |  |  |  |  |  |  |  |  |  | IC50 (HT-29; Homo sapiens, HT-29, 48 h, read-out: IC50 HT-29, MTT assay, 48 h, mean ± SD): > 50 µM; IC50 (HT-29; read-out: IC50 HT-29, MTT assay, 48 h, mean ± SD): 61.2 ± 9.7 µM; IC50 (H1299; Homo sapiens, NCI-H1299, 48 h, read-out: IC50 H1299, MTT assay, 48 h, mean ± SD): > 50 µM; IC50 (H1299; read-out: IC50 H1299, MTT assay, 48 h, mean ± SD): 82.5 ± 5.9 µM; IC50 (HTB-54; Homo sapiens, HTB-54, 48 h, read-out: IC50 HTB-54, MTT assay, 48 h, mean ± SD): > 50 µM; IC50 (HTB-54; read-out: IC50 HTB-54, MTT assay, 48 h, mean ± SD): 58.7 ± 9 µM; IC50 (MDA-MB-231; Homo sapiens, MDA-MB-231, 48 h, read-out: IC50 MDA-MB-231, MTT assay, 48 h, mean ± SD): > 50 µM; IC50 (MDA-MB-231; read-out: IC50 MDA-MB-231, MTT assay, 48 h, mean ± SD): 71 ± 10.3 µM; MIC (K. pneumoniae; 24 h): 100 µg/mL (≈ 450 µM); MBC (K. pneumoniae): 100 µg/mL (≈ 450 µM); MIC (C. freundii; 24 h): 100 µg/mL (≈ 450 µM); MBC (C. freundii): 100 µg/mL (≈ 450 µM); MIC (S. faecalis; 24 h): 50 µg/mL (≈ 225 µM); MBC (S. faecalis): > 200 µg/mL; MIC (S. epidermidis; 24 h): 12.5 µg/mL (≈ 56.3 µM); MBC (S. epidermidis): 12.5 µg/mL (≈ 56.3 µM) |
| C(=C\c1ccccc1)/C[Se][Se]C/C=C/c1ccccc1 [Compound 1b, 1,2-Dicinnamyldiselenide] |  | > 200 |  | > 200 |  | < 40 | 36 ± 5.4 | < 40 | 28.7 ± 2.6 | 50.1 ± 5.9 | 56.3 ± 5.3 | > 200 | > 200 | > 200 | > 200 |  |  |  |  |  |  |
| O=C(CC[Se]CC=Cc1ccccc1)[c-]1cccc1.[Fe+2].c1cc[cH-]c1 [Compound 1c, 3-(Cinnamylselanyl)-1-ferrocenylpropan-1-one] |  |  |  |  |  |  | > 100 |  | 70.6 ± 6.6 |  |  |  |  |  |  | 32.3 ± 3.2 | 32.1 ± 3 | >200 | >200 | >200 | MIC E. coli (E. coli): >200 µg/mL; MIC K. pneumoniae (K. pneumoniae; Gram-negative, 24 h at 37 °C): >200 µg/mL; MIC C. freundii (C. freundii; Gram-negative, 24 h at 37 °C): >200 µg/mL |
| N#C[Se]Cc1ccc2c(c1)OCO2 [Compound 2a, 5-(Selenocyanatomethyl)benzo[d][1,3]dioxole] | 50 (≈ 208 µM) | 50 (≈ 208 µM) | > 200 | 25 (≈ 104 µM) | no bactericidal effect was observed | < 12 | 11.9 ± 3.4 | < 12 | 11.9 ± 3.7 | 45.2 ± 8.2 | 43.8 ± 5.7 | 50 (≈ 208 µM) | 100 (≈ 416 µM) | 25 (≈ 104 µM) | 12.5 (≈ 52.1 µM) |  |  | ≤ 25 | ≤ 25 | ≤ 25 | MBC (K. pneumoniae; Gram-negative): 50 µg/mL (≈ 208 µM); MBC (C. freundii; Gram-negative): 100 µg/mL (≈ 416 µM); MBC S. aureus (S. aureus): could not be obtained; MBC (S. faecalis; Gram-positive): > 200 µg/mL; MBC (S. epidermidis; Gram-positive): 12.5 µg/mL (≈ 52.1 µM) |
| O=C(CC[Se]Cc1ccc2c(c1)OCO2)[c-]1cccc1.[Fe+2].c1cc[cH-]c1 [Compound 2c, 3-((Benzo[d][1,3]dioxol-5-ylmethyl)selanyl)-1-ferrocenylpropan-1-one] |  |  |  |  |  |  | 21.4 ± 4.3 |  | 45.2 ± 7.2 |  |  |  |  |  |  | 29.7 ± 2.9 | 30.9 ± 1.3 | >200 | >200 | >200 | MIC E. coli (E. coli): >200 µg/mL; MIC K. pneumoniae (K. pneumoniae; Gram-negative, 24 h at 37 °C): >200 µg/mL; MIC C. freundii (C. freundii; Gram-negative, 24 h at 37 °C): >200 µg/mL |
